In ChEMBL document CHEMBL1125025, “11 beta-methoxy-, 11 beta-ethyl- and 17 alpha-ethynyl-substituted 16 alpha-fluoroestradiols: receptor-based imaging agents with enhanced uptake efficiency and selectivity” (J Med Chem, 1990):

Legend:
[1] = biological target: T1, Sex hormone-binding globulin (Homo sapiens) (UniProt P04278); experiment: Binding affinity against Sex steroid binding protein(SBP) of human serum; design: reference not given here
T1 sequence (whole entry): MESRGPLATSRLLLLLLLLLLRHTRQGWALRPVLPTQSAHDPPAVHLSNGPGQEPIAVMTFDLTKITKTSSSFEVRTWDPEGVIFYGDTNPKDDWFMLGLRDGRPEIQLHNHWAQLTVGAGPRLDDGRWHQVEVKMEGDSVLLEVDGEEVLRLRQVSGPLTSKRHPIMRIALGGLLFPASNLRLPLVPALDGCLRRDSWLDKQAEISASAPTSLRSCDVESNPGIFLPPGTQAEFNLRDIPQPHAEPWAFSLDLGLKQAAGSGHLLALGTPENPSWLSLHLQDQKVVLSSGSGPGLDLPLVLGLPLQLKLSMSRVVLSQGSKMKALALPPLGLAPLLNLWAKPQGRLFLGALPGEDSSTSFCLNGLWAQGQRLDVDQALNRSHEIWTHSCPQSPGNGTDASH

[2] = biological target: T2, Alpha-fetoprotein (Rattus norvegicus) (UniProt P02773); experiment: Binding affinity against Alphafetoprotein (AFP), in rodents.; design: reference not given here
T2 sequence (whole entry): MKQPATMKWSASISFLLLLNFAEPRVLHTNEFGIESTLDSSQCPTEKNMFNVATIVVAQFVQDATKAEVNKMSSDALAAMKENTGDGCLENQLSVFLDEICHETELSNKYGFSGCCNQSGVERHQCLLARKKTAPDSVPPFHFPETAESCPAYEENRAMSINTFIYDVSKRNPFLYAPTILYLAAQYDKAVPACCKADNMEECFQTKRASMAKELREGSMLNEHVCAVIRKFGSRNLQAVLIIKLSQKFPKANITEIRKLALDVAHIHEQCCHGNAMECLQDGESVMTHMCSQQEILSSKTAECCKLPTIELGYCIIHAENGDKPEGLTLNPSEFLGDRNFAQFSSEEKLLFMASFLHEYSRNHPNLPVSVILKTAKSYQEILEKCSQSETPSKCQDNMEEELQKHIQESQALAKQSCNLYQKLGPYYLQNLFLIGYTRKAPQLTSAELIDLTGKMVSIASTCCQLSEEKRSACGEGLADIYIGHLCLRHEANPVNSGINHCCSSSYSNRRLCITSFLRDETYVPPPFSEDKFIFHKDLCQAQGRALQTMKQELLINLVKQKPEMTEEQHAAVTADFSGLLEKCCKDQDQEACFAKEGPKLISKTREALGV

Row | Compound | relative binding affinity (RBA) [1] | relative binding affinity (RBA) [2]
1 | C[C@]12CC[C@@H]3c4ccc(O)cc4CC[C@H]3[C@@H]1CC[C@@H]2O | 100 | 100
2 | CO[C@H]1C[C@]2(C)[C@@H](O)[C@H](F)C[C@H]2[C@@H]2CCc3cc(O)ccc3[C@H]21 | 0.53 | 0.51
3 | CO[C@H]1C[C@]2(C)[C@@H](O)CC[C@H]2[C@@H]2CCc3cc(O)ccc3[C@H]21 | 1.72 | 0.26
4 | CC[C@H]1C[C@]2(C)[C@@H](O)CC[C@H]2[C@@H]2CCc3cc(O)ccc3[C@@H]12 | 40.8 | 1.21
5 | C#C[C@]1(O)[C@H](F)C[C@H]2[C@@H]3CCc4cc(O)ccc4[C@H]3CC[C@@]21C | 0.43 | 0.94
6 | C[C@]12CC[C@@H]3c4ccc(O)cc4CC[C@H]3[C@@H]1C[C@@H](F)[C@@H]2O | 9.5 | 101
7 | CC[C@H]1C[C@]2(C)[C@@H](O)[C@H](F)C[C@H]2[C@@H]2CCc3cc(O)ccc3[C@@H]12 | 2.24 | 1.47
8 | C#C[C@]1(O)CC[C@H]2[C@@H]3CCc4cc(O)ccc4[C@H]3CC[C@@]21C | 1.81 | 3.51
